Data on 3 compounds can be found in patent US10906913B2, “NMDA receptor modulators and uses thereof” (Northwestern University, priority 2008, dated 2021).

Entries after “also recorded” stand apart in the source; their conditions may differ. Read-outs that look alike come from different tables or passages of the source. Peptide text beside a SMILES is read from it.

Assay [1] concerns the target Glutamate, Metabotropic, mGlus (Homo sapiens, UniProt P41594). The assay is described as follows: Binding assay, Glutamate, Metabotropic, mGlus. The text has this:
(§1) Table B depicts the results of binding assays against various targets with AK51: […]

A further assay deals with Glutamate, AMPA. The assay is described as follows: Binding assay, Glutamate, AMPA. Also noted: species or system rat. The conditions noted are these: 10 μM.
Excerpt: as §1

Assay [2] has as its target Glutamate, NMDA, Polyamine (Rattus norvegicus, UniProt P35439+Q00960). The experiment in a line: Binding assay, Glutamate, NMDA, Polyamine.
Excerpt: as §1

The target of the next assay is Glutamate, NMDA, Glycine (Rattus norvegicus, UniProt P35439). The experiment in a line: Binding assay, Glutamate, NMDA, Glycine.
Excerpt: as §1

In the next assay the test system is Glutamate, Kainate. The assay is described as follows: Binding assay, Glutamate, Kainate. Also noted: species or system rat. The note with it: 10 μM.
Excerpt: as §1

A further assay has as its system rats. The experiment in a line: Alternating T-maze learning task. In kind it is in vivo, rat. The conditions noted are these: 60 min before testing. As to the method: Male 3 month old Fisher 344 X Brown Norway F1 cross rats (FBNF1) were used for this study. The t-maze was constructed with arms (45 cm long×10 cm wide×10 cm high) made of black Plexiglas enclosing the maze. Two plastic bottle caps, lined with wire mesh, were secured to the end of each goal arm in which the food reward (Cheerios, 100 mg/piece) was placed. Before the start of training, animals were gradually deprived of food to approximately 85% of their free feeding weight. On three successive days before the start of training, animals were habituated to the t-maze with food located throughout the maze. […] On the subsequent testing day, animals were given injections of AK51 (0.3, 1, 3, 10, 30 mg/kg p.o.), or DMSO vehicle (1 mg/ml; Sigma, Saint Louis Mo.) in a blind manner via gastric gavage (4″, 16-ga; Braintree Scientific, Braintree Mass.) 60 min prior to the start of testing (n=8-9 per group. On the first trial of testing, both arms were baited with food and for the subsequent 20 trials only alternating choices (opposite of the animal's previous choice) were rewarded (˜30 sec inter-trial interval). The number of trials to criterion (5 consecutive correct choices) was calculated for each animal. Data was analyzed by ANOVA followed by Fisher PLSD post hoc tests comparing individual drug doses to vehicle (α=0.05). […]

A further assay relates to Glutamate, NMDA, Agonism. The experiment in a line: Binding assay, Glutamate, NMDA, Agonism. Details: species or system rat. The note with it: 10 μM.
Excerpt: as §1

A further assay concerns Glutamate, Non-Selective. The experiment in a line: Binding assay, Glutamate, Non-Selective. Also noted: species or system rat. The note with it: 10 μM.
Excerpt: as §1

Assay [3] has as its target Glutamate, NMDA, Phencyclidine (Rattus norvegicus, UniProt P35439). The experiment in a line: Binding assay, Glutamate, NMDA, Phencyclidine.
Excerpt: as §1

In assay [4] the test system is Glycine, Strychnine-Sensitive. The assay is described as follows: Binding assay, Glycine, Strychnine-Sensitive. Details: species or system rat. The conditions noted are these: 10 μM.
Excerpt: as §1

Assay [5] deals with T1, NMDA receptor (Rattus norvegicus, UniProt P35439).
T1 construct: NMDA receptor-gated single neuron conductance (INMDA) in hippocampal CAI pyramidal neurons; from tissue; host or cells: in vitro hippocampal slices, CA1 pyramidal neurons
The assay is described as follows: NMDA receptor-gated single neuron conductance (INMDA) in hippocampal CA1 pyramidal neurons. In kind it is cell-based. The note with it: for enhancement of INMDA compared among the tested compounds: comparison of compound B, AK-51, AK-52. The text has this:
(§2) The effects of the three compounds were examined on 1) NMDA receptor-gated single neuron conductance (INMDA) in hippocampal CAI pyramidal neurons and 2) the magnitude of long-term potentiation (LTP) and long term depression (LTD) at Schaffer collateral CA1 synapses, in in vitro hippocampal slices.

In assay [6] the test system is Schaffer collateral-CA1 synapses. The experiment in a line: Long-term potentiation (LTP) at Schaffer collateral-CA1 synapses, in vitro hippocampal slices. Format: cell-based. The note with it: for magnitude of LTP: high frequency stimulus; for magnitude / induction of LTP: concentration not given.
Excerpt: as §2

Assay [7] has the same test system. The experiment in a line: Long term depression (LTD) at Schaffer collateral-CA1 synapses, in vitro hippocampal slices. In kind it is cell-based. The conditions noted are these: 1 μM; low frequency stimulus 2 Hz/10 min.
Excerpt: as §2

Assay [8] has as its target T1, NMDA receptor. The note with it: cited from earlier work.
The subject of assay [9] is Schaffer collateral-CA1 synapses. The note with it: cited from earlier work.
Assay [10] has the same test system. The note with it: cited from earlier work. The source holds these as a separate data set.

Sequence of Glutamate, NMDA, Polyamine (Q00960 27-1482, other chains not shown): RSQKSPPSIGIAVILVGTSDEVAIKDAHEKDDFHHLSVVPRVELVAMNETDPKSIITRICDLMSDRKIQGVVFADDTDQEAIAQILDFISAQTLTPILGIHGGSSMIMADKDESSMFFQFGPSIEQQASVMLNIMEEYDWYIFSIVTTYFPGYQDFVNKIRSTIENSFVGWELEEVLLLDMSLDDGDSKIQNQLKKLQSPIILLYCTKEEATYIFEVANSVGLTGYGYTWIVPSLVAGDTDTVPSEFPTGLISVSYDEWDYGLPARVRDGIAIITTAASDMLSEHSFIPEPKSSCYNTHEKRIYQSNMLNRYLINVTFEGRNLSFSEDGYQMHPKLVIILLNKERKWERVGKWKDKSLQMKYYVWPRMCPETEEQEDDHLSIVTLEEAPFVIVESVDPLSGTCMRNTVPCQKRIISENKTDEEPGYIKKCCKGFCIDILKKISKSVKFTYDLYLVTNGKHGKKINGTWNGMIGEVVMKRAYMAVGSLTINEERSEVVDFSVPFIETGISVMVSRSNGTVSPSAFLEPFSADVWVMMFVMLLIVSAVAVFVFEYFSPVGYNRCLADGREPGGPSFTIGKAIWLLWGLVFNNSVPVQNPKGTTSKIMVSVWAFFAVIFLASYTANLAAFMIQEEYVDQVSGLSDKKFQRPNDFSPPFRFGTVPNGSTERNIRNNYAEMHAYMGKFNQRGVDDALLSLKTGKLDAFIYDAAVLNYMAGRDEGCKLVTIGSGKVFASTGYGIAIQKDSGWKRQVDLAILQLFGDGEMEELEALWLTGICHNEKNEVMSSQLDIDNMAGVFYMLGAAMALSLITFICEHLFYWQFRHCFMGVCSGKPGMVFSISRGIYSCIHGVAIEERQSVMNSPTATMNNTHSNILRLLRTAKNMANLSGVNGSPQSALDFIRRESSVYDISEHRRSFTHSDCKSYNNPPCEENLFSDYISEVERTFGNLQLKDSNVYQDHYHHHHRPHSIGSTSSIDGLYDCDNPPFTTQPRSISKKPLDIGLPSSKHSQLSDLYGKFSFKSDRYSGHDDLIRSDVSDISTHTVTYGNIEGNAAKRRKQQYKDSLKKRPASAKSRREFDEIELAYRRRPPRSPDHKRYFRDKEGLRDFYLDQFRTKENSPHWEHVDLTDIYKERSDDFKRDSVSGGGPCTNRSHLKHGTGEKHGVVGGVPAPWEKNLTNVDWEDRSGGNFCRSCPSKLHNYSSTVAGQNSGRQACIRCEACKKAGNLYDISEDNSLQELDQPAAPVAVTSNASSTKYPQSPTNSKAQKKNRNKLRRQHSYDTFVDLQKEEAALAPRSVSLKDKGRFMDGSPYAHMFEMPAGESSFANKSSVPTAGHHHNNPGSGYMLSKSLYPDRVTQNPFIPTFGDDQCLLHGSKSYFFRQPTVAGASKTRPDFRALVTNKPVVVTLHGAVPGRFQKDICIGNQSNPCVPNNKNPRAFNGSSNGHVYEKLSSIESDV
Sequence of Glutamate, Metabotropic, mGlus (P41594 21-1212): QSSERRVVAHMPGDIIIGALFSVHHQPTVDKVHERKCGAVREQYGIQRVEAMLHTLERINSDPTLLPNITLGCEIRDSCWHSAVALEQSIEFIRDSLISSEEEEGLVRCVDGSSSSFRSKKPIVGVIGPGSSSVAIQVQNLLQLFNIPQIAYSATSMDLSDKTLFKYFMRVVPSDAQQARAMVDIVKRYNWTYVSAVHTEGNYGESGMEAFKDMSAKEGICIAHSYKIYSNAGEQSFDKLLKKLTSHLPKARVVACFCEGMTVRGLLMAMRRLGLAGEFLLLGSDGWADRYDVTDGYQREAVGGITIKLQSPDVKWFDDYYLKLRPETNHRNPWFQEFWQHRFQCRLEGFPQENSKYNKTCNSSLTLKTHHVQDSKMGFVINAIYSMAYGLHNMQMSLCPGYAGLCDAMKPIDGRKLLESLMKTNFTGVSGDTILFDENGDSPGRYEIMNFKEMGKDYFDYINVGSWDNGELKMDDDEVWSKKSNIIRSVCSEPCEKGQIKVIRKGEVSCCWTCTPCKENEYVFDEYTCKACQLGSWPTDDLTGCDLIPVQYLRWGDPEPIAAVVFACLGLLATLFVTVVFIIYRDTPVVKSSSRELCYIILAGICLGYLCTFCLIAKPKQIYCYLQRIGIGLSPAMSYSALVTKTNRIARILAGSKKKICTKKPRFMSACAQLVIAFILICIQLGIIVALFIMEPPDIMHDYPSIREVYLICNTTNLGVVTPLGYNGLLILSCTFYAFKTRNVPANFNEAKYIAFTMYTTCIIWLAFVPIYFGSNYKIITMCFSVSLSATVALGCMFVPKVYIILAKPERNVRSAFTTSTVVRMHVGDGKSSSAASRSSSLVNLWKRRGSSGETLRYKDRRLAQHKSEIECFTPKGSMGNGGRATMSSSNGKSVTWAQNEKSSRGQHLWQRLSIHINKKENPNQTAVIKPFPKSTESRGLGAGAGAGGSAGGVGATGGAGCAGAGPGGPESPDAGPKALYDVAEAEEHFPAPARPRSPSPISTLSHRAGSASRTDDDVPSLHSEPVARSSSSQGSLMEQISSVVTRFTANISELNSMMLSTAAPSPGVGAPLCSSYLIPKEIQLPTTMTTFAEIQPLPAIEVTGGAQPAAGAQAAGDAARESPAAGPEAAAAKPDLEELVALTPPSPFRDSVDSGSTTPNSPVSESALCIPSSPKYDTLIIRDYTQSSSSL

`O=C1NCC12CCCN2` (stereo not drawn) [AK-51]: the inhibition (in general, the change of the read-out against control, counted positive when it falls) at 10 µM in assay [1] is -7%; in [2], -14%; at Glutamate, NMDA, Glycine, -6%; in [3], -5%. Also, the % Inhibition – broadly, the drop in the measured response relative to a control, in per cent – in the assay with Glutamate, AMPA is −8%; with Glutamate, Kainate, −13%; in the assay with Glutamate, NMDA, Agonism, 27%; with Glutamate, Non-Selective, −10%; in [4], 4%. The “learning behavior in the T-maze test” value is reported as “statistically significant enhancement” with rats (1.0 mg/kg by mouth, P<0.001) and “statistically significant enhancement” with rats (3.0 mg/kg by mouth, P<0.01). Moreover, on NMDA receptor [5] (100 nM and 1 μM, 20 min bath application, whole-cell recording), the “NMDA current (normalized pharmacologically-isolated NMDA receptor-gated current)” value is “enhances”. In addition, the “single shock evoked INMDA” value at NMDA receptor [5] (100 nM, listed as NRX-10,051) is listed as “enhanced; also recorded: marked enhancement”; at NMDA receptor [5] (1 μM) it was “enhancement”; on NMDA receptor [5] (1 μM, listed as NRX-10,051) it was “enhanced”. At NMDA receptor [5], the “enhancement of INMDA compared among the tested compounds” value is reported as “less potency than compound B; also recorded: smaller in magnitude”. The “magnitude of LTP” value in assay [6] (100 nM) is on record as “Enhancement”; in assay [6] (1 μM, listed as AK5151) it was “Enhancement”; in assay [6] (1 μM, listed as NRX-10,051), “doubled the magnitude”. In addition, the “magnitude / induction of LTP” value in assay [6] is “enhances”. For the same compound, the LTD result in [7] was “not altering”.

Take `CC(O)C(NC(=O)OCc1ccccc1)C(=O)N1CC2(CCCN2C(=O)OCc2ccccc2)C1=O` (stereo not drawn) [AK-52]: the “single shock evoked INMDA” value on NMDA receptor [5] (100 nM) was “mild enhancement”; on NMDA receptor [5] (100 nM, listed as AK52) it was “enhancement”; on NMDA receptor [5] (1 μM), “significant reduction”; at NMDA receptor [5] (1 μM, listed as AK52), “marked reduction”. For the same compound, the “enhancement of INMDA compared among the tested compounds” value at NMDA receptor [5] is given as “weakest enhancer”. Also, the “magnitude of LTP” value in [6] (100 nM) is “enhancement”; in assay [6] (1 μM), “slight, but significant, reduction”. Further, in assay [6], the “magnitude / induction of LTP” value is recorded as “selectively enhances”. For the same compound, the LTD result in assay [7] is recorded as “without altering; also recorded: did not affect”.

On to `C[C@@H](O)[C@H](N)C(=O)N1CCC[C@H]1C(=O)N1CCC[C@H]1C(=O)N[C@H](C(N)=O)[C@@H](C)O` [GLYX-13] (H-TPPT-NH2), for which, on NMDA receptor [8] (100 μM), the “burst INMDA” value is “reducing”. Besides, the “burst-activated INMDA” value on NMDA receptor [8] (1-10 μM) is “enhancement”. Moreover, at NMDA receptor [8] (1-10 μM), the “single pulse evoked INMDA” value is reported as “reducing”. For the same compound, the “INMDA mediated by NMDA receptors containing NR2A/B subunits” value at NMDA receptor [8] is reported as “selectively enhance”. Further, the LTP result in assay [9] (100 μM) is given as “reducing”; in assay [9] (1-10 μM) it was “enhancement”. For the same compound, the “simultaneous effect on LTP and LTD” value in assay [9] was “simultaneously increase LTP and reduce LTD”. Further, the LTD result is given as “no longer affected” in [10] (100 μM) and “reducing” in assay [10] (1-10 μM).
